Experimental data published in patent US20210255193A1, “LYSINE REACTIVE PROBES AND USES THEREOF” (The Scripps Research Institute, priority 2017, published 2021).

Columns and labels:
Assay in all cases: competitive isoTOP-ABPP
Assay type in all cases: binding
[1] = molecular target: T1, NAA25 N-alpha-acetyltransferase 25, NatB auxiliary subunit (Homo sapiens, UniProt Q14CX7)
T1 construct: isoTOP-ABPP experiments performed in cell lysates (in vitro); endogenous in cells; host or cells: soluble proteome of human cancer cell lines (MDA-MB-231; Ramos and Jurkat also prepared)
Procedure, shortened: (§1)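 Lysate + fragment (50 μM activated ester / 100 μM guanidinylating agent) or DMSO → 0.1 mM STP-alkyne, 1 h, RT → CuAAC to TEV tags (compound light, DMSO heavy) → LC-MS. R = heavy/light MS1 area; liganded lysine if R≥4.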

[2] = molecular target: T2, GOLGB1 Golgin subfamily B member 1 (Homo sapiens, UniProt Q14789); settings: for isoTOP-ABPP ratio (R) at liganded lysine Q14789_K103: 50 uM, in vitro, sol, 231
T2 construct: isoTOP-ABPP experiments performed in cell lysates (in vitro); endogenous in cells; host or cells: soluble proteome of human cancer cell lines (MDA-MB-231, Ramos, Jurkat)
Procedure, shortened: as §1

[3] = molecular target: T3, MAP2K3 Dual specificity mitogen-activated protein kinase (Homo sapiens, UniProt P46734); settings: for isoTOP-ABPP ratio (R) at liganded lysine P46734_K93: 50 uM, in vitro, sol, 231
T3 construct: isoTOP-ABPP experiments performed in cell lysates (in vitro); endogenous in cells; host or cells: soluble proteome of human cancer cell lines (MDA-MB-231; Ramos and Jurkat also prepared)
T3 sequence (P46734 1-347): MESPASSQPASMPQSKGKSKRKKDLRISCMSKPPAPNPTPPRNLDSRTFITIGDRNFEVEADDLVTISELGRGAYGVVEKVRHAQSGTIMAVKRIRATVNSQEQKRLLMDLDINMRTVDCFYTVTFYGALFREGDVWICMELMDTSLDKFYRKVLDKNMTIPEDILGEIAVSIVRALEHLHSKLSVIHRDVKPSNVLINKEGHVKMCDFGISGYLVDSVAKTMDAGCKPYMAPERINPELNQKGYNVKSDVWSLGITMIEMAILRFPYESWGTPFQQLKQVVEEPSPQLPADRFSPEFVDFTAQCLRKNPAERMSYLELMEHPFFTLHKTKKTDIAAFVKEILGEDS
Procedure, shortened: as §1

[4] = molecular target: T4, GSTT2B Glutathione S-transferase theta-2B (Homo sapiens, UniProt P0CG30); settings: for isoTOP-ABPP ratio (R) at liganded lysine P0CG30_K53: 50 uM, in vitro, sol, 231
T4 construct: isoTOP-ABPP experiments performed in cell lysates (in vitro); endogenous in cells; host or cells: MDA-MB-231 soluble lysate
T4 sequence (P0CG30 1-244): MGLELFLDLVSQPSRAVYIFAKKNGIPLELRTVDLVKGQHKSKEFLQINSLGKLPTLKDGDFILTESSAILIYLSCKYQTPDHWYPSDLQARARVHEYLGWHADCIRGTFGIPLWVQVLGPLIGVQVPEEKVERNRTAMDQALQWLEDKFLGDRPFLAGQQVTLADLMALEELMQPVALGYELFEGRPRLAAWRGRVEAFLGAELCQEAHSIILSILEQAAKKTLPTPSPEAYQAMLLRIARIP
Procedure, shortened: as §1

[5] = molecular target: T5, TRMT10C Mitochondrial ribonuclease P protein 1 (Homo sapiens, UniProt Q7L0Y3); settings: for isoTOP-ABPP ratio (R) at liganded lysine Q7L0Y3_K325: 50 uM, in vitro, sol, 231
T5 construct: isoTOP-ABPP experiments performed in cell lysates (in vitro); endogenous in cells; host or cells: soluble proteome of human cancer cell lines (MDA-MB-231; Ramos and Jurkat also prepared)
T5 sequence (Q7L0Y3 40-403): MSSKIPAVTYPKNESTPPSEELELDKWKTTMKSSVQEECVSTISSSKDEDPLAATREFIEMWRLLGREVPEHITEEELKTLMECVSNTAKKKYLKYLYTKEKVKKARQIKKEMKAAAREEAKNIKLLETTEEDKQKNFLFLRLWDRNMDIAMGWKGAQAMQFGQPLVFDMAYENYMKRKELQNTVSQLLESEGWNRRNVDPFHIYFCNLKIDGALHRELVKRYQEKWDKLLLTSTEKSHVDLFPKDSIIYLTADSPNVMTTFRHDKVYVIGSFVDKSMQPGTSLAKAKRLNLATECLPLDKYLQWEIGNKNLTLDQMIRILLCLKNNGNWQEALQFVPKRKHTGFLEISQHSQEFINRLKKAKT
Procedure, shortened: as §1

DCTN2 Dynactin subunit 2 = molecular target: T6, DCTN2 Dynactin subunit 2 (Homo sapiens, UniProt Q13561); settings: for isoTOP-ABPP ratio (R) at liganded lysine Q13561_K175: 50 uM, in vitro, sol, 231
T6 construct: isoTOP-ABPP experiments performed in cell lysates (in vitro); endogenous in cells; host or cells: soluble proteome of human cancer cell lines (MDA-MB-231, Ramos, Jurkat)
Procedure, shortened: as §1

T2 sequence (Q14789 whole entry): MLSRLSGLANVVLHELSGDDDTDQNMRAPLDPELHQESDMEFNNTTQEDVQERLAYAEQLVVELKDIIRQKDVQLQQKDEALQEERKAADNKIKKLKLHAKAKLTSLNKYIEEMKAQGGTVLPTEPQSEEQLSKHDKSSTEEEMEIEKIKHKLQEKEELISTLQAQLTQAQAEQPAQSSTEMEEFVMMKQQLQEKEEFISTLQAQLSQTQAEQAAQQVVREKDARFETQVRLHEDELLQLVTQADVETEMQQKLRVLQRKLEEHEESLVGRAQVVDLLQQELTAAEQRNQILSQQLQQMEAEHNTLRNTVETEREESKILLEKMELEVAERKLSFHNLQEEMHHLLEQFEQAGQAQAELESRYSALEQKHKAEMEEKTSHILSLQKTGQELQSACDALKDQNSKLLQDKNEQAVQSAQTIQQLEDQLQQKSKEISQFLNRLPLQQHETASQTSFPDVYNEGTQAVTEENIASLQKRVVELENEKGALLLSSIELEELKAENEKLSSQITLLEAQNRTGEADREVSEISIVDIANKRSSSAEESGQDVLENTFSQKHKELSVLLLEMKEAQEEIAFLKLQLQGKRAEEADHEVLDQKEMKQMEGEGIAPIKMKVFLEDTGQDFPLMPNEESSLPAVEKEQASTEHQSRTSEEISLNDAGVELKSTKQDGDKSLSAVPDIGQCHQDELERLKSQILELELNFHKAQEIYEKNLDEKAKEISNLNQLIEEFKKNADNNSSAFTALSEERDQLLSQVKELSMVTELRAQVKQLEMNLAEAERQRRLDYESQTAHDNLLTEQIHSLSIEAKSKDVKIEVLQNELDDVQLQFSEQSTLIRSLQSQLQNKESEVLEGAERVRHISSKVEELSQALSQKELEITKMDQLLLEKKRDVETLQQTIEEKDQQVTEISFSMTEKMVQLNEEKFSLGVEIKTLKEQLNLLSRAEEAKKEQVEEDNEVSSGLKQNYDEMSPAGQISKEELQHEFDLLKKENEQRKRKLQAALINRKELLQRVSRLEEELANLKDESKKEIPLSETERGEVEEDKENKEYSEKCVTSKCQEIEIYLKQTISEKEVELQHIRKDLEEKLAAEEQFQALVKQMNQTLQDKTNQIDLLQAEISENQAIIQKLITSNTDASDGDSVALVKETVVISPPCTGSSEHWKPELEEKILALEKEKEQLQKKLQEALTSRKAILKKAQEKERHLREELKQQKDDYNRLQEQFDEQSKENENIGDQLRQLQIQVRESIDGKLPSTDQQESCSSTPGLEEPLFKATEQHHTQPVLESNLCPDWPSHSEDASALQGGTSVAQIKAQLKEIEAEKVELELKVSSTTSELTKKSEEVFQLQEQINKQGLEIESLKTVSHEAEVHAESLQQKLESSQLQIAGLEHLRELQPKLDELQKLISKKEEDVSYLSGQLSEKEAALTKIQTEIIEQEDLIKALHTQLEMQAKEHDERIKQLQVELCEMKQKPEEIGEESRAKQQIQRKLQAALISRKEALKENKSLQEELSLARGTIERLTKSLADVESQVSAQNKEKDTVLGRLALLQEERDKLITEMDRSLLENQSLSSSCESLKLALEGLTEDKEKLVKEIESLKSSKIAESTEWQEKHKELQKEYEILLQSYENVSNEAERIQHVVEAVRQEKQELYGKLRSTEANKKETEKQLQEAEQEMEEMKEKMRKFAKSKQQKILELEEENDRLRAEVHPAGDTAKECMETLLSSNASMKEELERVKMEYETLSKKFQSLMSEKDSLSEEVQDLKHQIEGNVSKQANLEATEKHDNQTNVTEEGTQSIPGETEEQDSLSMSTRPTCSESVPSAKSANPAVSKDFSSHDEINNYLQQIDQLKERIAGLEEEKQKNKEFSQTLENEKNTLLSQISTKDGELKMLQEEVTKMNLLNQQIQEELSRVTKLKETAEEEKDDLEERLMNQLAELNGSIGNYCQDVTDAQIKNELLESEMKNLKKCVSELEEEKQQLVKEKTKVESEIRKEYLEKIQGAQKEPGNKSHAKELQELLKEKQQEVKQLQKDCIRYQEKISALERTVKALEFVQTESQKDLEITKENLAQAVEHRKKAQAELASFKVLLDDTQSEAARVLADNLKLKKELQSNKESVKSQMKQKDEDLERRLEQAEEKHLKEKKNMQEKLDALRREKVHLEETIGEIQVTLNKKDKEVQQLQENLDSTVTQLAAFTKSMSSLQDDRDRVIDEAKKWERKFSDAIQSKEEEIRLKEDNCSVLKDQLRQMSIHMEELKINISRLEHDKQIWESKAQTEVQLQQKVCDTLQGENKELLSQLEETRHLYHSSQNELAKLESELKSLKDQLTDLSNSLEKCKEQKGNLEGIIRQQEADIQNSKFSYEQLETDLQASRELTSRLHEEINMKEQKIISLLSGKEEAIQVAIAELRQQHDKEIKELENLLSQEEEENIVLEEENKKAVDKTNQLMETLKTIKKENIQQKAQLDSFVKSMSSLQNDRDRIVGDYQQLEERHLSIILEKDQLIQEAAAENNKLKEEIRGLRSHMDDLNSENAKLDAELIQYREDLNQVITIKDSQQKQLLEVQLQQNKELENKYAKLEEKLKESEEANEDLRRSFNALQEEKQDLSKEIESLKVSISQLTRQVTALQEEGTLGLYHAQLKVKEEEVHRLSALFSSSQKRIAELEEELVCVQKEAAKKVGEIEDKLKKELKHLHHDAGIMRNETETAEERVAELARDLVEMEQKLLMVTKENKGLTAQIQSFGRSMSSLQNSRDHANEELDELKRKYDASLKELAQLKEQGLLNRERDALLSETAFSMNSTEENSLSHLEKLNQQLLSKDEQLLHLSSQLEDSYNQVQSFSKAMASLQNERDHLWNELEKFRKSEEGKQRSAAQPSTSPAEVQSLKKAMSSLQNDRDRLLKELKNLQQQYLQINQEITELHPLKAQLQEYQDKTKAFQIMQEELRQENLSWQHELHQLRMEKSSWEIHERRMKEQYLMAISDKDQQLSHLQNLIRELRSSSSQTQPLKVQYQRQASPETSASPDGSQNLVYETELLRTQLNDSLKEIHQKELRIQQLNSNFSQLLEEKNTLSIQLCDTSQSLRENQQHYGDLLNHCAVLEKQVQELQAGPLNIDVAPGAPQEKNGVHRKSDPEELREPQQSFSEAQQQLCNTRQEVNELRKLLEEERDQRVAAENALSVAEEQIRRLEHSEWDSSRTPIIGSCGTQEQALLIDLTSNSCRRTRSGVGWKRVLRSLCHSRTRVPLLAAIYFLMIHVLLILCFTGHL
T6 sequence (Q13561 whole entry): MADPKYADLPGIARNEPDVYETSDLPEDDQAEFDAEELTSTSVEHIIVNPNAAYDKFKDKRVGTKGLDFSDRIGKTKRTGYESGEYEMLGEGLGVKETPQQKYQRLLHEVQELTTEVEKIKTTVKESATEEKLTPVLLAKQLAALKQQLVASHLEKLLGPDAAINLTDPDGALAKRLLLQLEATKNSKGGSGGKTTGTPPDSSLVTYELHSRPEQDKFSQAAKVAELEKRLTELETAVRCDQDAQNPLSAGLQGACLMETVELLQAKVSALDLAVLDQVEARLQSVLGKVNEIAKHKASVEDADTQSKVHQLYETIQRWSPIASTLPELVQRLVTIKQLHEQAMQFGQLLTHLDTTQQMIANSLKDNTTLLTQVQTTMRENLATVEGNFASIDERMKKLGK
T1 sequence (Q14CX7 whole entry): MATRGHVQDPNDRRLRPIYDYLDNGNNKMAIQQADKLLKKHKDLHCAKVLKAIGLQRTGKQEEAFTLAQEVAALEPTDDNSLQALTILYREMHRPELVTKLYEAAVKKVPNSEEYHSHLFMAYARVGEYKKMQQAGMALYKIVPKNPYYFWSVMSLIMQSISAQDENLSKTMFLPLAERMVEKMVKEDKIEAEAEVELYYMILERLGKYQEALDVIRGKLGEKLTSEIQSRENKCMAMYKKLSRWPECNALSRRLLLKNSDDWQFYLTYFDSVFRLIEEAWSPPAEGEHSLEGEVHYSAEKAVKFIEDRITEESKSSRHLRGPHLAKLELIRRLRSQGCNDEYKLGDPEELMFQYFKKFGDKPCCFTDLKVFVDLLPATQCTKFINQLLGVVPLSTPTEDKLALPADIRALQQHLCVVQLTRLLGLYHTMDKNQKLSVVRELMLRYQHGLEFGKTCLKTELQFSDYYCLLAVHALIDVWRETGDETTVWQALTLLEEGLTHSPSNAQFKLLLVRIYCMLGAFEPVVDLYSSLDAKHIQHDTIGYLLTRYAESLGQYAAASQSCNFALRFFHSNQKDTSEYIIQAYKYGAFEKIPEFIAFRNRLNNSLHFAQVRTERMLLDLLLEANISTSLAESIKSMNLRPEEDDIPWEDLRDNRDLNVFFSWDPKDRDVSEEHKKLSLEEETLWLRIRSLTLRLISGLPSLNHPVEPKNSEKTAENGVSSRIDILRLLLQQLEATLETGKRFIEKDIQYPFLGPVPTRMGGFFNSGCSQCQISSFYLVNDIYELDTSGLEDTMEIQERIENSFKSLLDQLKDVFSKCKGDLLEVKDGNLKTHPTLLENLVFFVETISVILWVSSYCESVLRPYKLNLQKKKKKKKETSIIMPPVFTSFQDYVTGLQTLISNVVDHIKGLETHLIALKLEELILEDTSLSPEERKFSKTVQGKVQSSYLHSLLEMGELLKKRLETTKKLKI

Structure (SMILES) | isoTOP-ABPP ratio (R) at liganded lysine Q14789_K103 [2] | isoTOP-ABPP ratio (R) at liganded lysine P46734_K93 [3] | isoTOP-ABPP ratio (R) at liganded lysine P0CG30_K53 [4] | isoTOP-ABPP ratio (R) at liganded lysine Q7L0Y3_K325 [5] | isoTOP-ABPP ratio (R) at liganded lysine Q13561_K175 (DCTN2 Dynactin subunit 2) | isoTOP-ABPP ratio, lysine Q14789_K103 ([2]; 50 uM_231_sol_in vitro) | isoTOP-ABPP ratio, lysine Q13561_K175 (DCTN2 Dynactin subunit 2; 50 uM_231_sol_in vitro) | isoTOP-ABPP ratio, lysine P46734_K93 ([3]; 50 uM_231_sol_in vitro) | isoTOP-ABPP ratio, lysine P0CG30_K53 ([4]; 50 uM_231_sol_in vitro) | further results
O=C(CCc1coc2cc(F)ccc2c1=O)Oc1ccc([N+](=O)[O-])cc1[N+](=O)[O-] [fragment 36, 2,4-Dinitrophenyl 3-(7-fluoro-4-oxo-4H-chromen-3-yl)propanoate] | 0.9 | 0.9 | 0.5 | – | – | – | – | – | – | isoTOP-ABPP ratio (R) at liganded lysine Q14CX7_K575 ([1]; 50 uM, in vitro, sol, 231): 1.5
O=C(CC12CC3CC(CC(C3)C1)C2)Oc1ccc([N+](=O)[O-])cc1[N+](=O)[O-] [fragment 38, 2,4-Dinitrophenyl 2-(adamantan-1-yl)acetate] | 0.9 | 0.9 | 0.8 | 0.8 | – | – | – | – | – | –
CC(C)(C)OC(=O)NCCCC(=O)Oc1ccc([N+](=O)[O-])cc1[N+](=O)[O-] [fragment 41, 2,4-Dinitrophenyl 4-((tert-butoxycarbonyl)amino)butanoate] | 1.1 | 0.9 | 0.5 | 0.9 | 1.3 | – | – | – | – | –
O=C(Oc1ccc([N+](=O)[O-])cc1[N+](=O)[O-])C(c1ccccc1)(c1ccccc1)c1ccccc1 [fragment 42, 2,4-Dinitrophenyl 2,2,2-triphenylacetate] | 0.9 | 0.9 | 1.0 | 1.0 | 0.9 | – | – | – | – | –
CC(=O)Oc1ccc([N+](=O)[O-])cc1[N+](=O)[O-] [fragment 43, 2,4-Dinitrophenyl acetate] | 1.0 | 1.0 | 0.6 | 1.0 | 0.6 | – | – | – | – | –
O=C(ON1C(=O)CCC1=O)c1cc(C(F)(F)F)cc(C(F)(F)F)c1 [fragment 46, 3,5-Bis(trifluoromethyl)benzoic acid NHS ester] | – | – | – | – | – | 1.2 | 0.8 | 1.3 | 1.8 | isoTOP-ABPP ratio, lysine Q7L0Y3_K325 ([5]; 50 uM_231_sol_in vitro): 1.0
O=C(Oc1c(F)c(F)c(C(F)(F)F)c(F)c1F)c1cc(C(F)(F)F)cc(C(F)(F)F)c1 [fragment 47, 2,3,5,6-Tetrafluoro-4-(trifluoromethyl)phenyl 3,5-bis(trifluoromethyl)benzoate] | – | – | – | – | – | 1.0 | 1.0 | 1.1 | 0.6 | isoTOP-ABPP ratio, lysine Q7L0Y3_K325 ([5]; 50 uM_231_sol_in vitro): 1.1
O=C(Oc1c(F)c(F)cc(F)c1F)c1cc(C(F)(F)F)cc(C(F)(F)F)c1 [fragment 48, 2,3,5,6-Tetrafluorophenyl 3,5-bis(trifluoromethyl)benzoate] | – | – | – | – | – | 1.1 | 0.7 | 1.1 | 0.9 | isoTOP-ABPP ratio, lysine Q14CX7_K575 ([1]; 50 uM_231_sol_in vitro): 1.1
CC(C)(C)OC(=O)N=C(NC(=O)OC(C)(C)C)n1cccn1 [fragment 50, reference compound] | – | – | – | – | – | – | – | – | – | isoTOP-ABPP ratio, lysine Q7L0Y3_K325 ([5]; 100 uM_231_sol_in vitro): 6.2; isoTOP-ABPP ratio, lysine Q14789_K103 ([2]; 100 uM_231_sol_in vitro): 1.4; isoTOP-ABPP ratio, lysine Q13561_K175 (DCTN2 Dynactin subunit 2; 100 uM_231_sol_in vitro): 1.3; isoTOP-ABPP ratio, lysine P46734_K93 ([3]; 100 uM_231_sol_in vitro): 1.8; isoTOP-ABPP ratio, lysine P0CG30_K53 ([4]; 100 uM_231_sol_in vitro): 1.4
